Data as given in ChEMBL document CHEMBL4627355, “Chemical reactivity and uses of 1-phenyl-3-methyl-5-pyrazolone (PMP), also known as edaravone” (Bioorg Med Chem, 2020).

Tests used:
[1] = Antioxidant activity assessed as copper-chelating scavenging activity; type: functional
[2] = Inhibition of lipid peroxidation; type: functional

Row | Compound | IC50 [1] | IC50 [2]
1 | CC1=NN(c2ccccc2)C(=O)C1 [EDARAVONE] | 9 µM | 4.5 µM
2 | O=C1CC(c2ccccc2)=NN1c1ccccc1 | 3 µM | 3.5 µM
